In one series the test system is MCF‐7 cells. Put plainly: CCK‐8 cell viability assay, MCF‐7. Format: cell-based, human. The source says:
(§1) Human breast cancer MCF‐7 (RRID:CVCL_0031), human lung cancer A549 (RRID:CVCL_0023), human colon cancer HCT‐116 (RRID:CVCL_0291), human cervical cancer Hela (RRID:CVCL_0030), human hepatoma HepG2 (RRID:CVCL_0027), human gastric cancer SGC‐7901 (RRID:CVCL_0520) and human non‐tumor mamma gland epithelial MCF‐10A (RRID:CVCL_0598) and transformed human liver epithelial‐2 (THLE‐2) (RRID:CVCL_3803) cells were obtained from Shanghai Donghuan Biotechnology (Shanghai, China). All cell lines had been authenticated in the past 3 years and again within 4 months after completion of the experiments. All cell lines had been tested for mycoplasma contamination frequently. Their identities were characterized by short tandem repeat analysis. All of these cell lines were cultured in high glucose Dulbecco's modified Eagle's medium supplemented by 10% fetal bovine serum, 100 units·mL^−1 penicillin and 100 μg·mL^−1 streptomycin (complete culture medium).
(§2) MCF‐7 cells (1 × 10^4 cells per well) were treated in triplicate with different doses of each type of RC extract in 96‐well plates for varying time periods. The negative control cells were treated with the diluent of physiological saline, whereas positive control cells were treated with different concentrations (0.1–5 mM) of 5‐fluorouracil (5‐FU) (Leica, Wetzlar, Germany). During the last hour of culture, each well of cells was treated with 10 μL of CCK‐8 solution. The absorbance of the supernatants of individual wells was measured at 450 nm using a microplate reader. Similarly, the effect of different synthesized RCPs (5–45 μg·mL^−1) on the viability of different types of human cancer cells was tested with CCK‐8 assays using the diluent of physiological saline containing the same concentration of dimethylsulfoxide as a negative control and the same concentrations of 5‐FU as the positive controls. Ten RCPs with a predicted strong bioactivity were synthesized by GenScript ([…]) and their purity, sequences and solubility are shown in Table 1. […] The formula used to calculate the cytotoxicity rate of each concentration of RCP was: Cytotoxicity rate (%) = (absorbance value of the control group − absorbance value of the experimental group)/absorbance value of the control group × 100%. In addition, MCF‐7 cells were treated with each type of RCP at 45 μg·mL^−1 for 12–72 h and the dynamic impact of RCP treatment on the viability of MCF‐7 cells was determined every 12 h using CCK‐8 assays.
(§3) Data are expressed as the mean ± SEM. The data distribution was analyzed by Shapiro–Wilk test. The IC50 values of each peptide for individual cell lines were determined using the PRISM, version 8 (GraphPad Software Inc.). Briefly, all dose–response data were converted into […], which were automatically analyzed by PRISM for non‐linear regression to determine and report the IC50 and its SD for each peptide in a specific cell line. The difference among groups was analyzed by analysis of variance and post‐hoc Tukey's tests and the comparison between groups was performed using Student's t‐test and PRISM, version 8 (GraphPad Software Inc.). P < 0.05 was considered statistically significant.

In a further series the test system is A549 cells. Put plainly: CCK‐8 cell viability assay, A549. The following applies: CCK‐8, 48 h, triplicate; peptides 5–45 μg·mL^−1; 5‐FU positive control 0.1–5 mM; vs negative control. The series is classed as cell-based, human.
Text: as §1, §2, §3

A further series concerns HCT‐116 cells. Put plainly: CCK‐8 cell viability assay, HCT‐116. The series is classed as cell-based, human. The following applies: CCK‐8, 48 h, triplicate; peptides 5–45 μg·mL^−1; 5‐FU positive control 0.1–5 mM; vs negative control.
Text: as §1, §2, §3

A further series relates to Hela cells. Put plainly: CCK‐8 cell viability assay, Hela. Format: cell-based, human. The following applies: CCK‐8, 48 h, triplicate; peptides 5–45 μg·mL^−1; 5‐FU positive control 0.1–5 mM; vs negative control.
Text: as §1, §2, §3

Another series concerns HepG2 cells. Briefly: CCK‐8 cell viability assay, HepG2. Format: cell-based, human. The settings on record: CCK‐8, 48 h, triplicate; peptides 5–45 μg·mL^−1; 5‐FU positive control 0.1–5 mM; vs negative control.
Text: as §1, §2, §3

The subject of another series is SGC‐7901 cells. Briefly: CCK‐8 cell viability assay, SGC‐7901. Format: cell-based, human. The following applies: CCK‐8, 48 h, triplicate; peptides 5–45 μg·mL^−1; 5‐FU positive control 0.1–5 mM; vs negative control.
Text: as §1, §2, §3

The test system of the next series is MCF‐10A cells. Briefly: CCK‐8 cell viability assay, non‐tumor MCF‐10A. Format: cell-based, human. The settings on record: CCK‐8, 48 h, triplicate; peptides 5–45 μg·mL^−1; 5‐FU positive control 0.1–5 mM; vs negative control.
Text: as §1, §2, §3

For a further series, the system named is THLE‐2 cells. Briefly: CCK‐8 cell viability assay, non‐tumor THLE‐2. The series is classed as cell-based, human. The settings on record: CCK‐8, 48 h, triplicate; peptides 5–45 μg·mL^−1; 5‐FU positive control 0.1–5 mM; vs negative control.
Text: as §1, §2, §3

The test system of series [1] is cancer cells (MCF‐7, A549, HCT‐116, Hela, HepG2, SGC‐7901) vs non‐tumor MCF‐10A and THLE‐2 cells. Briefly: CCK‐8 cytotoxicity, preference for cancer cells over non‐tumor cells. Format: cell-based, human. Also on record: cytotoxicity against non‐tumor MCF‐10A and THLE‐2 cells compared with tumor cell lines: dose or concentration left out as unconfirmed. The settings on record: for preference of cytotoxicity for cancer cells over non‐tumor cells: 5–45 μg·mL^−1, 48 h, CCK‐8.
Text: as §1, §2, §3

Series [2] can be described thus: Solubility of the synthesized peptides. Format: physicochemical. The settings on record: for Solubility: solvent given for the synthesized peptide (GenScript).
[3] abbreviates: CCK‐8, 48 h, triplicate, peptides 5–45 μg·mL^−1, 5‐FU positive control 0.1–5 mM, vs negative control.

On to `O=c1[nH]cc(F)c(=O)[nH]1` [5‐FU, 5‐fluorouracil, reference compound], for which the “viability of MCF‐7 cells” value in the series on MCF‐7 cells (setting [3]) is “significantly decreased the viability”; with MCF‐7 cells (RC extract experiment, positive control 0.1–5 mM, dose‐dependent, P < 0.01), “significantly reduced the viability”. Also, the “viability of A549 cells” value in the series with A549 cells is recorded as “significantly decreased the viability”. In the series on HCT‐116 cells, the “viability of HCT‐116 cells” value is “significantly decreased the viability”. Moreover, the “viability of Hela cells” value in the series on Hela cells is reported as “significantly decreased the viability”. The “viability of HepG2 cells” value in the series with HepG2 cells was “significantly decreased the viability”. Besides, in the series with SGC‐7901 cells, the “viability of SGC‐7901 cells” value is “significantly decreased the viability”. Also, the “viability of non‐tumor MCF‐10A cells” value in the series with MCF‐10A cells was “significantly decreased the viability”. The “viability of non‐tumor THLE‐2 cells” value in the series with THLE‐2 cells is listed as “significantly decreased the viability”.

Consider “EWLKVPCLSTRLINPENMGF [RCP‐6, synthesized 20‐mer renal cell peptide from Sacsin molecular chaperone, trypsin digested]”, for which the “dynamic cytotoxicity against MCF‐7 cells” value in the series with MCF‐7 cells (45 μg·mL^−1, 12–72 h, CCK‐8 every 12 h, maintained at highest levels to 72 h) is “increased with time from 12 h post treatment to 48 h”. Also, the “viability of MCF‐7 cells” value with MCF‐7 cells (setting [3]) was “significantly decreased the viability”. Further, the “viability of A549 cells” value in the series with A549 cells is on record as “significantly decreased the viability”. For the same compound, in the series on HCT‐116 cells, the “viability of HCT‐116 cells” value is reported as “significantly decreased the viability”. Also, the “viability of Hela cells” value with Hela cells is given as “significantly decreased the viability”. In the series with HepG2 cells, the “viability of HepG2 cells” value was “significantly decreased the viability”. Further, the “viability of SGC‐7901 cells” value with SGC‐7901 cells is “significantly decreased the viability”. In addition, the “viability of non‐tumor MCF‐10A cells” value with MCF‐10A cells is listed as “only treatment with the highest doses of them slightly reduced the viability”. Also, the “viability of non‐tumor THLE‐2 cells” value with THLE‐2 cells is on record as “only treatment with the highest doses of them slightly reduced the viability”. Besides, the “preference of cytotoxicity for cancer cells over non‐tumor cells” value (shortened to “preference … over non‐tumor cells”) in [1] is listed as “potent cytotoxicity preferably against cancer cells”. The “cytotoxicity against non‐tumor MCF‐10A and THLE‐2 cells compared with tumor cell lines” value in series [1] (48 h, P < 0.05 or P < 0.01) is recorded as “statistically lower than tumor cell lines”. Besides, the aqueous solubility entry in series [2] (in words) was “low aqueous solubility”. This compound returned a Solubility in series [2] of 0.1% Dimethylsulfoxide.

For the compound “FAGDDAPR [RCP‐4, synthesized 8‐mer renal cell peptide from Actin, cytoplasmic 2, trypsin digested]”, in the series with MCF‐7 cells (setting [3]), the “viability of MCF‐7 cells” value is “decreased the viability”. Further, in the series with A549 cells, the “viability of A549 cells” value was “decreased the viability”. Moreover, the “viability of HCT‐116 cells” value in the series with HCT‐116 cells is listed as “decreased the viability”. The “viability of Hela cells” value in the series with Hela cells is reported as “decreased the viability”. Also, the “viability of HepG2 cells” value in the series with HepG2 cells is recorded as “decreased the viability”. The “viability of SGC‐7901 cells” value in the series with SGC‐7901 cells is given as “decreased the viability”. Besides, the “viability of non‐tumor MCF‐10A cells” value in the series with MCF‐10A cells is on record as “decreased the viability”. For the same compound, the “viability of non‐tumor THLE‐2 cells” value in the series with THLE‐2 cells is reported as “decreased the viability”. In addition, the “preference … over non‐tumor cells” value in [1] is on record as “did not preferably decrease the viability of tumor cells”. Further, the Solubility result in series [2] is given as “Water, pH 7.0”.

As to “GIYAPDSPRAF [RCP‐8, synthesized 11‐mer renal cell peptide from Vanin 1, protamex‐digested]”, the “viability of MCF‐7 cells” value with MCF‐7 cells (setting [3]) was “decreased the viability”. Besides, the “viability of A549 cells” value in the series with A549 cells is on record as “decreased the viability”. In the series with HCT‐116 cells, the “viability of HCT‐116 cells” value is “decreased the viability”. For the same compound, the “viability of Hela cells” value in the series with Hela cells is “decreased the viability”. Further, in the series with HepG2 cells, the “viability of HepG2 cells” value was “decreased the viability”. In the series with SGC‐7901 cells, the “viability of SGC‐7901 cells” value is listed as “decreased the viability”. The “viability of non‐tumor MCF‐10A cells” value in the series on MCF‐10A cells is “decreased the viability”. Besides, the “viability of non‐tumor THLE‐2 cells” value in the series with THLE‐2 cells is given as “decreased the viability”. Moreover, in [1], the “preference … over non‐tumor cells” value was “did not preferably decrease the viability of tumor cells”. In addition, in [2], the Solubility was 0.1% Dimethylsulfoxide.

Turning to “GPAGPQGPR [RCP‐3, synthesized 9‐mer renal cell peptide from Collagen alpha‐1 (I) chain, trypsin digested]”, the “viability of MCF‐7 cells” value in the series with MCF‐7 cells (setting [3]) is reported as “decreased the viability”. Also, the “viability of A549 cells” value with A549 cells is listed as “decreased the viability”. Besides, the “viability of HCT‐116 cells” value in the series on HCT‐116 cells is “decreased the viability”. Moreover, the “viability of Hela cells” value in the series on Hela cells is “decreased the viability”. The “viability of HepG2 cells” value in the series with HepG2 cells is recorded as “decreased the viability”. Also, the “viability of SGC‐7901 cells” value with SGC‐7901 cells is reported as “decreased the viability”. In the series on MCF‐10A cells, the “viability of non‐tumor MCF‐10A cells” value is given as “decreased the viability”. For the same compound, the “viability of non‐tumor THLE‐2 cells” value with THLE‐2 cells is listed as “decreased the viability”. The “preference … over non‐tumor cells” value in [1] is given as “did not preferably decrease the viability of tumor cells”. In addition, the Solubility result in [2] is on record as “Water, pH 7.0”.

Consider “IYAPDSPRAF [RCP‐10, synthesized 10‐mer renal cell peptide from Vanin 1, protamex‐digested]”, for which the “viability of MCF‐7 cells” value in the series with MCF‐7 cells (setting [3]) is recorded as “decreased the viability”. Moreover, in the series on A549 cells, the “viability of A549 cells” value is on record as “decreased the viability”. Besides, in the series with HCT‐116 cells, the “viability of HCT‐116 cells” value was “decreased the viability”. In the series with Hela cells, the “viability of Hela cells” value is “decreased the viability”. For the same compound, in the series on HepG2 cells, the “viability of HepG2 cells” value is “decreased the viability”. Further, in the series with SGC‐7901 cells, the “viability of SGC‐7901 cells” value is reported as “decreased the viability”. The “viability of non‐tumor MCF‐10A cells” value in the series with MCF‐10A cells is given as “decreased the viability”. For the same compound, in the series on THLE‐2 cells, the “viability of non‐tumor THLE‐2 cells” value is “decreased the viability”. For the same compound, in [1], the “preference … over non‐tumor cells” value is reported as “did not preferably decrease the viability of tumor cells”. In series [2], the Solubility result is given as “Water, pH 7.0”.

With “PAPPKPEPK [RCP‐9, synthesized 9‐mer renal cell peptide from Non‐histone chromosomal protein HMG‐17, trypsin digested]”, in the series on MCF‐7 cells (setting [3]), the “viability of MCF‐7 cells” value is on record as “decreased the viability”. Further, in the series with A549 cells, the “viability of A549 cells” value is recorded as “decreased the viability”. Further, the “viability of HCT‐116 cells” value in the series with HCT‐116 cells is “decreased the viability”. Moreover, the “viability of Hela cells” value in the series on Hela cells was “decreased the viability”. Also, the “viability of HepG2 cells” value in the series on HepG2 cells is “decreased the viability”. Moreover, the “viability of SGC‐7901 cells” value with SGC‐7901 cells is recorded as “decreased the viability”. The “viability of non‐tumor MCF‐10A cells” value in the series with MCF‐10A cells is listed as “decreased the viability”. Moreover, the “viability of non‐tumor THLE‐2 cells” value with THLE‐2 cells is listed as “decreased the viability”. The “preference … over non‐tumor cells” value in series [1] is reported as “did not preferably decrease the viability of tumor cells”. Also, the Solubility result in series [2] was “Water, pH 7.0”.

For the origin of these results see paper PMC12582985, “Preparation and characterization of renal cell peptides from fetal rats for their antitumor activity” (FEBS Open Bio, 2025).
